The target of this assay is Arabidopsis thaliana SHMT. Kind of assay: SHMT activity assay (ED50 SHMT), coupled with N5,N10-CH2-THF dehydrogenase, NADH at 340 nm. It counts as biochemical. As to the method: Determination of the ED50 SHMT was carried out as described hereinunder.
Purification of Arabidopsis thaliana SHMT
The following buffers were used during the purification protocol:
Buffer A (Lysis and Wash Buffer): • 20 mM Na-Phosphat (pH 7,4) • 500 mM NaCI • 40 mM Imidazole • 1.0 mM L-Serine • 0.5 mM Pyridoxal-5-phosphate • 0.5 mM DTT
Buffer B (Elution Buffer): • 20 mM Na-Phosphat (pH 7,4) • 500 mM NaCl • 250 mM Imidazole • 1.0 mM L-Serine • 0.5 mM Pyridoxal-5-phosphate • 0.5 mM DTT
All procedures were conducted at 4° C. or on ice. Pellets were suspended in Buffer A containing 1 mg/ml DNAse +Complete EDTA-free protease inhibitor tablet. Cells were lysed using sonication or a French Press device, using standard settings. Lysis was centrifuged at 40000×g for 25 minutes. The supernatant was filtered (0.22 μM) before loading onto a Ni-NTA column.
A gravity flow column containing Ni-NTA resin was equilibrated with 10 CV Buffer A and loaded with filtered cell lysate. The column was then washed with 10 CV Buffer A. Elution was afforded using Buffer B and collected manually as mini-factions. EDTA was added after elution to a final concentration of 1 mM. Fractions were pooled on the basis of the correct band for SHMT visualised via SDS-PAGE and staining.
SHMT Assay Buffer: • 50 mM KH2PO4 (pH 7,4) • 2.0 mM NAD+ • 7.5 mM DTT • 0.3 mM Tetrahydrofolic acid • 4% DMSO
Reaction Start: 20 mM L-Serine
The rate of N5,N10-CH2-THF formation catalyzed by SHMT was monitored at 340 nm by coupling with excess N5,N10-CH2-THF dehydrogenase, which converts NAD+to NADH. Reactions were initiated by adding 20 mM L-Serine. Inhibition of initial velocity was determined by adding various inhibitors of the SHMT reaction and monitored as described. Reactions were measured in a Bio Tek micro titer plate reader following the change in absorption with the formation of NADH for 30 mimnutes.

[1] abbreviates: Arabidopsis thaliana SHMT enzyme assay, values given as upper bounds.
The mark [2] stands for this setting: inhibition of initial velocity of Arabidopsis thaliana SHMT.
The mark [3] stands for this setting: Table 2, values given as upper bounds.
Setting [4] is: Table 2, Arabidopsis thaliana SHMT enzyme assay, values given as upper bounds.

As a reminder, the EC50 is the concentration at which the effect is half-maximal. High values mean lower potency in that assay, low ones higher potency in that assay.

Molecules are shown by their SMILES. Where only a bound is given, the exact number is not on record here.

Under setting [1], `Cc1n[nH]c2c1C(c1cccc(Br)c1)(C(C)(F)F)C(C#N)=C(N)O2` (stereo not drawn) [Compound 2.702] registered an EC50 of less than 100 nM.

In turn, `CC1(C)C=Cc2cc(C3(C4CCC4)C(C#N)=C(N)Oc4[nH]ncc43)cc(F)c2O1` (stereo not drawn) [Compound 4.31] had an EC50 under setting [2] of less than 10 nM.

Regarding `Cc1n[nH]c2c1C(c1cc(Cl)cc(OCCC(=O)O)c1)(C1CCC1)C(C#N)=C(N)O2` (racemic) [Compound 2.505], the EC50 under setting [3] is less than 10 nM.

On to `Cc1n[nH]c2c1C(c1cc(Cl)c(Cl)c(Cl)c1)(C1CCC1)C(C#N)=C(N)O2` (stereo not drawn) [Compound 2.209.], for which the EC50 under setting [3] was less than 10 nM.

Under setting [3], `CCC1(c2cc(C(F)(F)F)cc(C(F)(F)F)c2)C(C#N)=C(N)Oc2[nH]nc(CCC(F)F)c21` (stereo not drawn) [Compound 2.107.] had an EC50 of less than 1000 nM.

In turn, `Cc1n[nH]c2c1C(c1cc(Cl)cc(-c3ccc(F)cc3)c1)(C1CCC1)C(C#N)=C(N)O2` (stereo not drawn) [Compound 2.224] registered an EC50 under setting [4] of less than 10 nM.

In turn, `COC(=O)c1ccc(-c2cc(C#N)cc(C3(C(C)C)C(C#N)=C(N)Oc4[nH]nc(C)c43)c2)s1` (stereo not drawn) [Compound 2.705] showed an EC50 under setting [1] of less than 10 nM.

As to `COC(=O)c1csc(C2(C3CCC3)C(C#N)=C(N)Oc3[nH]nc(C)c32)c1` (stereo not drawn) [Compound 4.30], under setting [2], the EC50 is less than 10 nM.

In the case of `Cc1n[nH]c2c1C(c1cc(Cl)cc(N(C)C(=O)CCC#N)c1)(C1CCC1)C(C#N)=C(N)O2` (stereo not drawn) [Compound 2.697], under setting [1], the EC50 is less than 100 nM.

The molecule `CCOc1n[nH]c2c1C(c1cc(C#N)cc(C#N)c1)(C1CCC1)C(C#N)=C(N)O2` (stereo not drawn) [Compound 2.397] displayed an EC50 under setting [4] of less than 100 nM.

Molecule `Cc1n[nH]c2c1C(C(C)C)(C(F)(F)c1cccc(Cl)c1)C(C#N)=C(N)O2` (stereo not drawn) [Compound 4.67] registered an EC50 under setting [2] of less than 1000 nM.

In the case of `Cc1n[nH]c2c1C(c1cc(C#N)cc(-c3cc(C(=O)O)cs3)c1)(C(C)C)C(C#N)=C(N)O2` (stereo not drawn) [Compound 2.686], under setting [1], the EC50 was less than 100 nM.

In turn, `Cc1n[nH]c2c1C(CC(C)C)(c1cccc(Cl)c1)C(C#N)=C(N)O2` (stereo not drawn) [Compound 2.126.] showed an EC50 under setting [3] of less than 1000 nM.

`Cc1n[nH]c2c1C(c1cc(Cl)cc(CCCC#N)c1)(C1CCC1)C(C#N)=C(N)O2` (stereo not drawn) [Compound 2.670]: under setting [1], the EC50 was less than 10 nM.

The molecule `Cc1n[nH]c2c1C(c1cc(Br)cc(OCC(=O)O)c1)(C1(F)CC1)C(C#N)=C(N)O2` (stereo not drawn) [Compound 2.503] registered an EC50 under setting [3] of less than 10000 nM.

In the case of `CCC1(c2ccc(Oc3ccc(C(F)(F)F)cc3Cl)c(C)c2)C(C#N)=C(N)Oc2[nH]nc(C)c21` (stereo not drawn) [Compound 2.23.], the EC50 under setting [3] was less than 10000 nM.

`COc1c(Cl)cc(C2(C(C)C)C(C#N)=C(N)Oc3[nH]ncc32)cc1Cl` (stereo not drawn) [Compound 2.330]: the EC50 under setting [4] was less than 10 nM.

Under setting [3], `Cc1n[nH]c2c1C(c1ccc(OCc3ccccc3)c(Cl)c1)(C(C)C)C(C#N)=C(N)O2` (stereo not drawn) [Compound 2.185.] yielded an EC50 of less than 100 nM.

Turning to `CCC1(c2cc(C)cc(Br)c2)C(C#N)=C(N)Oc2[nH]nc(C)c21` (stereo not drawn) [Compound 2.469], the EC50 under setting [3] is less than 10 nM.

In the case of `Cc1n[nH]c2c1C(c1cc(C#N)cc(-c3cc(C(=O)O)cc(C(=O)O)c3)c1)(C1CCC1)C(C#N)=C(N)O2` (stereo not drawn) [Compound 2.564], the EC50 under setting [3] is less than 1000 nM.

With `COc1c(C#N)cc(C2(C3CCC3)C(C#N)=C(N)Oc3[nH]nc(C)c32)cc1C(F)(F)F` (stereo not drawn) [Compound 2.491], the EC50 under setting [3] was less than 10 nM.

Under setting [3], `Cc1n[nH]c2c1C(c1cc(C#N)cc(-c3ccc(C(=O)O)cc3)c1)(C(C)C)C(C#N)=C(N)O2` (stereo not drawn) [Compound 2.519] displayed an EC50 of less than 10 nM.

`N#CC1=C(N)Oc2[nH]nc(C3CC3)c2C1(c1cccc(Cl)c1)C1CCC1` (stereo not drawn) [Compound 2.174.]: the EC50 under setting [3] is less than 100 nM.

In the case of `COc1ccc(C2(C3CCC3)C(C#N)=C(N)Oc3[nH]nc(C)c32)cc1C#N` (stereo not drawn) [Compound 2.464], the EC50 under setting [3] is less than 10 nM.

With `Cc1n[nH]c2c1C(c1cc(Cl)cc(CCC(=O)O)c1)(C1(F)CC1)C(C#N)=C(N)O2` (stereo not drawn) [Compound 2.497], the EC50 under setting [3] is less than 100 nM.

The molecule `Cc1n[nH]c2c1C(c1cc(Cl)cc(Oc3cc(F)c(O)c(F)c3)c1)(C1CCC1)C(C#N)=C(N)O2` (stereo not drawn) [Compound 2.596] registered an EC50 under setting [3] of less than 10 nM.

For `CCC1(c2ccc(OS(=O)(=O)c3ccccc3)c(C)c2)C(C#N)=C(N)Oc2[nH]nc(C)c21` (stereo not drawn) [Compound 2.58.], the EC50 under setting [3] was less than 1000 nM.

Under setting [3], `Cc1n[nH]c2c1C(c1cc(Cl)cc(Cl)c1)(C1CC(F)(F)C1)C(C#N)=C(N)O2` (stereo not drawn) [Compound 2.652] returned an EC50 of less than 10 nM.

Under setting [3], `Cc1n[nH]c2c1C(c1cccc(C(F)(F)F)c1)(C1CCCC1)C(C#N)=C(N)O2` (stereo not drawn) [Compound 2.213.] came in with an EC50 of less than 10 nM.

As to `CCC1(c2cccc(C(F)(F)F)c2)C(C#N)=C(N)Oc2[nH]nc(C3CC3)c21` (stereo not drawn) [Compound 2.119.], the half-maximal effective concentration (EC50) under setting [3] was less than 1000 nM.

Under setting [1], `Cc1n[nH]c2c1C(c1cc(Cl)cc(N(C)C(=O)CC#N)c1)(C1CCC1)C(C#N)=C(N)O2` (stereo not drawn) [Compound 2.696] came in with an EC50 of less than 10 nM.

Under setting [3], `CCc1n[nH]c2c1C(CC)(c1cc(Cl)cc(Cl)c1)C(C#N)=C(N)O2` (stereo not drawn) [Compound 2.109.] returned an EC50 of less than 1000 nM.

Molecule `Cc1n[nH]c2c1C(c1cc(F)cc(Cl)c1)(C1CCC1)C(C#N)=C(N)O2` (stereo not drawn) [Compound 2.157.] registered an EC50 under setting [3] of less than 100 nM.

In the case of `Cc1cc(C2(C3CC3)C(C#N)=C(N)Oc3[nH]nc(C)c32)ccc1O` (stereo not drawn) [Compound 2.111.], the EC50 under setting [3] is less than 10000 nM.

Regarding `Cc1n[nH]c2c1C(c1cc(C#N)cc(-c3ccc(C(=O)O)cc3)c1)(C1CCC1)C(C#N)=C(N)O2` (stereo not drawn) [Compound 2.460], under setting [3], the EC50 is less than 10 nM.

For the molecule `CCC1(c2cc(C#N)cc(C(F)(F)F)c2)C(C#N)=C(N)Oc2[nH]nc(C)c21` (racemic) [Compound 2.530], under setting [3], the EC50 was less than 10 nM.

Regarding `CCc1n[nH]c2c1C(c1ccc(Cl)cc1)(C1CC1)C(C#N)=C(N)O2` (stereo not drawn) [Compound 2.114.], the EC50 under setting [3] was less than 100 nM.

For the molecule `Cc1n[nH]c2c1C(c1cc(C#N)cc(-c3cc(F)cc(C(=O)O)c3)c1)(C1CCC1)C(C#N)=C(N)O2` (stereo not drawn) [Compound 2.545], the EC50 under setting [3] is less than 10 nM.

`Cc1n[nH]c2c1C(c1ccc(C(F)(F)F)c(C(F)(F)F)c1)(C1CCC1)C(C#N)=C(N)O2` (stereo not drawn) [Compound 2.272] displayed an EC50 under setting [4] of less than 10 nM.

As for `Cc1n[nH]c2c1C(c1ccc3c(c1)OCO3)(C1CCC1)C(C#N)=C(N)O2` (stereo not drawn) [Compound 4.44], the EC50 under setting [2] is less than 10 nM.

Regarding `CCC1(c2ccc(OC)c(OC)c2)C(C#N)=C(N)Oc2[nH]nc(C)c21` (stereo not drawn) [Compound 2.21.], under setting [3], the EC50 is less than 1000 nM.

As to `CCCCC(=O)N(C)c1cc(C#N)cc(C2(C3CCC3)C(C#N)=C(N)Oc3[nH]nc(C)c32)c1` (stereo not drawn) [Compound 2.614], under setting [3], the EC50 was less than 10 nM.

`Cc1n[nH]c2c1C(c1cc(Cl)cc(N(C)C(=O)CCc3nnn[nH]3)c1)(C1CCC1)C(C#N)=C(N)O2` (stereo not drawn) [Compound 2.698]: the EC50 under setting [1] was less than 100 nM.

As to `Cc1n[nH]c2c1C(c1cc(Cl)cc(N3CCOCC3)c1)(C1CCC1)C(C#N)=C(N)O2` (stereo not drawn) [Compound 2.488], under setting [3], the EC50 is less than 10 nM.

Molecule `Cc1n[nH]c2c1C(c1cc(C#N)cc(-c3ccc(C(F)(F)F)cc3)c1)(C1CCC1)C(C#N)=C(N)O2` (stereo not drawn) [Compound 2.326] came in with an EC50 under setting [4] of less than 10 nM.

Consider `Cc1n[nH]c2c1C(c1cc(Cl)cc(-c3cccs3)c1)(C1CC1)C(C#N)=C(N)O2` (stereo not drawn) [Compound 2.276], for which the EC50 under setting [4] is less than 1000 nM.

With `N#CC1=C(N)Oc2[nH]nc(O)c2C1(c1cc(F)cc(Cl)c1)C1CCC1` (stereo not drawn) [Compound 2.231], the EC50 under setting [4] is less than 10000 nM.

In turn, `Cc1n[nH]c2c1C(c1cc(Cl)cc(-c3ccccc3)c1)(C1CC1)C(C#N)=C(N)O2` (stereo not drawn) [Compound 2.184.] displayed an EC50 under setting [3] of less than 100 nM.

The values above are taken from patent publication US9480259B2, “Pyrazolopyrans having herbicidal and pharmaceutical properties” (BASF SE, priority 2012, dated 2016).
